Measured values as given in US20020173491A1, “DAPD combination therapy with inosine monophosphate dehydrogenase inhibitor” (priority 2000, published 2002).
Read-outs that look alike come from different tables or passages of the source. Marks after values point to notes of the source that are not given here.

What was measured:
xxLAI strain of HIV-1 = test: microbe, parasite or virus in culture; assay type: cell-based; settings: for effect of addition of 0.25 μM MPA on anti-HIV activity in PBMCs / effect of addition of 20 μM RBV on anti-HIV activity in PBMCs / Fold difference in EC50, 0.01 μM MPA / Fold difference in EC50, 0.1 μM MPA / Fold difference in EC50, 0.25 μM MPA / Fold difference in EC50, 5 μM RBV / Fold difference in EC50, 10 μM RBV / Fold difference in EC50, 20 μM RBV: PBMC; for effect of addition of 0.25 μM MPA on anti-HIV activity in PBMCs / effect of addition of 20 μM RBV on anti-HIV activity in PBMCs: all the concentrations tested; for Fold difference in EC50, 0.01 μM MPA: control vs with 0.01 μM MPA; for Fold difference in EC50, 0.1 μM MPA: control vs with 0.1 μM MPA; for Fold difference in EC50, 0.25 μM MPA: control vs with 0.25 μM MPA; for Fold difference in EC50, 5 μM RBV: control vs with 5 μM RBV; for Fold difference in EC50, 10 μM RBV: control vs with 10 μM RBV; for Fold difference in EC50, 20 μM RBV: control vs with 20 μM RBV
Protocol: In this assay, cell supernatants were incubated on microelisa wells coated with antibodies to HIV-1 p24 core antigen. Subsequently, anti-HIV-1 conjugate labeled with horseradish peroxidase was added. The labeled antibody bound to the solid phase antibody/antigen complexes previously formed. Addition of the tetramethylbenzidine substrate results in blue color formation. The color turned yellow when the reaction is stopped. The plates were then analyzed on a plate reader set at 490 nm. The absorbance is a direct measurement of the amount of HIV-1 produced in each well and a decrease in color indicates decreased viral production. […] PBMC were obtained from HIV-1 negative donors by banding on Ficoll gradients, stimulated with phytohemaglutinin (PHAP) for 48 hours prior to infection with HIV-1, and infected with virus for 4 hours at 37° C. at a MOI of 0.001. […] Plates were incubated for 3 days at 37° C. The concentration of virus in each well was determined using the NEN p24 assay. Using the absorption values of the cell controls as 100% protection and drug free, virus infected cells as 0% protection, a dose response curve is generated by plotting percent protection on the Y axis and drug concentration on the X axis. From this curve, EC50 values were determined.
Compound dilutions and assay conditions were as described above.
MPA was also tested for activity against the xxLAI strain of HIV-1 in PBMCs using a p24 based Elisa assay. In this assay, cell supernatants are incubated on microelisa wells coated with antibodies to HIV-1 p24 core antigen. Subsequently, anti-HIV-1 conjugate labeled with horse radish peroxidase is added. The labeled antibody binds to the solid phase antibody/antigen complexes previously formed. Addition of the tetramethylbenzidine substrate results in blue color formation. The color turns yellow when the reaction is stopped. The plates are then analyzed on a plate reader set at 490 nm. The absorbance is a direct measurement of the amount of HIV-1 produced in each well and a decrease in color indicates decreased viral production. Dilutions of MPA were made in cell culture media in a 96 well plate, the highest concentration of MPA tested was 1 μM. PBMC were obtained from HIV-1 negative donors by banding on Ficoll gradients, stimulated with phytohemaglutinin (PHAP) for 48 hours prior to infection with HIV-1, and infected with virus for 4 hours at 37° C. at a MOI of 0.001. Infected cells were seeded into 96 well plates containing 4-fold serial dilutions of MPA. Plates were incubated for 3 days at 37° C. The concentration of virus in each well was determined using the NEN p24 assay. Using the absorption values of the cell controls as 100% protection and drug free, virus infected cells as 0% protection, a dose response curve is generated by plotting % protection on the Y axis and drug concentration on the X axis. From this curve EC50 values were determined.
Compound dilutions and assay conditions were as described above. The concentrations of MPA used were 1, 0.5, 0.25, 0.1, and 0.01 μM.

HIV-1 mutant K65R = test: MT2/XTT combination assay, resistant virus K65R; assay type: cell-based; settings: for EC50: Human immunodeficiency virus 1, K65R; for fold difference from WT: K65R
Protocol: (§1) Triplicate samples of compound were tested. MT2 cells were infected with xxLAI at a multiplicity of infection (MOI) of 0.03 for 3 hours at 37° C. in 5% CO2. The infected cells were plated at 3.0×10^4/well into a 96 well plated containing drug dilutions and incubated for 5 days at 37° C. in CO2. […] This method has been modified into a susceptibility assay and has been used in a variety of in vitro antiviral tests and is readily adaptable to any system with a lytic virus (Weislow, O. S., et. al. 1989). Using the absorption values of the cell controls as 100% protection and no drug, virus infected cells as 0% protection, a dose response curve is generated by plotting % protection on the Y axis and drug concentration on the X axis. From this curve EC50 values were determined.
(§2) Assays were performed in the MT2 cell line as described above in the XXT sensitivity assay section.
(§3) The restraint strains analyzed included viruses created by site directed mutagenesis, K65R and L74V, as well as a recombinant virus containing mutations at positions 98S, 116Y, 151M and 215Y. The wild type backbone in which these mutants were created, xxLAI, was also analyzed for comparison. The concentrations of DAPD and DXG tested were as described in the above MT2/XTT combination assay section.
(§4) The concentrations of MPA used were 1, 0.5, 0.25, 0.1, and 0.01 μM. Assays were performed in the MT2 cell line as described in section 3.1.
(§5) The restraint strains analyzed included viruses created by site directed mutagenesis, K65R and L74V, as well as a recombinant virus containing mutations at positions 98S, 116Y, 151M and 215Y. The wild type backbone in which these mutants were created, xxLAI, was also analyzed for comparison. The concentrations of DAPD and DXG tested were as described in section 4.1. MPA was tested in combination with DAPD and DXG at a fixed concentration of 0.25 μM.

HIV-1 mutant L74V = test: MT2/XTT combination assay, resistant virus L74V; assay type: cell-based; settings: for EC50: Human immunodeficiency virus 1, L74V; for fold difference from WT: L74V
Protocol: as §1, §2, §3, §4, §5

[1] = tested on: recombinant virus A98S, F116Y, Q151M, T215Y; test: MT2/XTT combination assay, recombinant resistant virus; assay type: cell-based, HIV-1; settings: for fold difference from WT: A98S; for EC50: Human immunodeficiency virus 1, A98S
Protocol: as §1, §2, §3, §4, §5

[2] = Human immunodeficiency virus 1, PBMC, read-out: Mean EC50, Control, PMBCs, no MPA
[3] = Human immunodeficiency virus 1, PBMC, read-out: Mean EC50, Control, PMBCs, no RBV
[4] = read-out: Mean EC50, 0.01 μM MPA, PMBCs, with 0.01 μM MPA
[5] = read-out: Mean EC50, 0.1 μM MPA, PMBCs, with 0.1 μM MPA
[6] = read-out: Mean EC50, 0.25 μM MPA, PMBCs, with 0.25 μM MPA
[7] = read-out: Mean EC50, 1 μM RBV, PMBCs, with 1 μM RBV
[8] = read-out: Mean EC50, 5 μM RBV, PMBCs, with 5 μM RBV
[9] = read-out: Mean EC50, 10 μM RBV, PMBCs, with 10 μM RBV
[10] = read-out: Mean EC50, 20 μM RBV, PMBCs, with 20 μM RBV

Compound | EC50 (xxLAI strain of HIV-1; [2]) | EC50 (xxLAI strain of HIV-1; [3]) | effect of addition of 0.25 μM MPA on anti-HIV activity in PBMCs (xxLAI strain of HIV-1; with 0.25 μM MPA) | effect of addition of 20 μM RBV on anti-HIV activity in PBMCs (xxLAI strain of HIV-1; with 20 μM RBV) | Fold difference in EC50, 0.01 μM MPA (xxLAI strain of HIV-1) | Fold difference in EC50, 0.1 μM MPA (xxLAI strain of HIV-1) | Fold difference in EC50, 0.25 μM MPA (xxLAI strain of HIV-1) | Fold difference in EC50, 5 μM RBV (xxLAI strain of HIV-1) | Fold difference in EC50, 10 μM RBV (xxLAI strain of HIV-1) | Fold difference in EC50, 20 μM RBV (xxLAI strain of HIV-1) | EC50 (xxLAI strain of HIV-1; [4]) | EC50 (xxLAI strain of HIV-1; [5]) | EC50 (xxLAI strain of HIV-1; [6]) | EC50 (xxLAI strain of HIV-1; [7]) | EC50 (xxLAI strain of HIV-1; [8]) | EC50 (xxLAI strain of HIV-1; [9]) | EC50 (xxLAI strain of HIV-1; [10]) | EC50 (HIV-1 mutant K65R; compound alone (Table 4)) | EC50 (HIV-1 mutant K65R; compound alone (Table 10)) | fold difference from WT (HIV-1 mutant K65R; compound alone (Table 4)) | other results
Nc1nc(N)c2ncn(C3COC(CO)O3)c2n1 (single isomer, unassigned; (-)) [DAPD] | 4.1 µM | 4.5 µM | completely inhibited HIV replication | completely inhibited HIV replication | 4.6 fold | 22.8 fold | >50 fold | 6.4 fold | 28 fold | >150 fold | 0.9 µM | 0.18 µM | < 0.0002 µM | 2.26 µM | 0.7 µM | 0.16 µM | < 0.03 µM | 43.7 µM | 41 µM | (5.5)^b fold | fold difference from WT (HIV-1 mutant K65R; compound alone (Table 10)): 6 fold; EC50 (HIV-1 mutant L74V; compound alone (Table 4)): 34 µM; EC50 (HIV-1 mutant L74V; compound alone (Table 10)): 39 µM; fold difference from WT (HIV-1 mutant L74V; compound alone (Table 4)): (4) fold; fold difference from WT (HIV-1 mutant L74V; compound alone (Table 10)): 4.9 fold; fold difference from WT ([1]; compound alone (Table 4)): (>12) fold; fold difference from WT ([1]; compound alone (Table 10)): 6 fold; EC50 ([1]; compound alone (Table 4)): > 100 µM; EC50 ([1]; compound alone (Table 10)): 85 µM
Nc1nc2c(ncn2C2COC(CO)O2)c(=O)[nH]1 (single isomer, unassigned; (-)) [DXG] | 0.14 µM | 0.15 µM | completely inhibited HIV replication | completely inhibited HIV replication | 9.3 fold | 23.3 fold | >50 fold | 5.6 fold | >15 fold | >15 fold | 0.015 µM | 0.006 µM | < 0.0002 µM | 0.075 µM | 0.027 µM | < 0.01 µM | < 0.01 µM | 3.9 µM | 4 µM | 5 fold | fold difference from WT (HIV-1 mutant K65R; compound alone (Table 10)): 5.6 fold; EC50 (HIV-1 mutant L74V; compound alone (Table 4)): 4.5 µM; EC50 (HIV-1 mutant L74V; compound alone (Table 10)): 3.8 µM; fold difference from WT (HIV-1 mutant L74V; compound alone (Table 4)): 5.6 fold; fold difference from WT (HIV-1 mutant L74V; compound alone (Table 10)): 4.2 fold; fold difference from WT ([1]; compound alone (Table 4)): 20 fold; fold difference from WT ([1]; compound alone (Table 10)): 8.4 fold; EC50 ([1]; compound alone (Table 4)): 16 µM; EC50 ([1]; compound alone (Table 10)): 16 µM
